Tested on: 292921-168-R-J2-PDC complex spheroid viability
Test: Anticancer human tumor 292921-168-R-J2-PDC patient-derived pancreatic carcinoma cell line growth inhibition
Details: for IC50: curve of first compound; for viability, T/C: stronger effect = lower value; active means viability on the fitted dose curve at most 10% of control; inactive means the rest
Summary of the method: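 Multicellular complex spheroids of tumor cells with human endothelial cells (HUVEC) and mesenchymal stem cells; the LSD1 inhibitor iadademstat was combined with standard-of-care or investigational agents. Top concentration at or near clinical Cmax, half-log dilutions; final DMSO ≤0.25%.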
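Further: seven day compound exposure before luminescent viability read.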
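Wherever viability, T/C is given: 100% = DMSO vehicle control wells.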

COc1ccc([C@@H](O)c2cc(-c3ncnc4cc(N5CCOCC5)ccc34)c(F)cc2Cl)nn1 + NC1CC1c1ccc(-c2cccc(O)c2)cc1
131 nM: IC50 (second compound 3.16 µM)
270 nM: IC50 (second compound 0.316 µM)
403 nM: IC50 (second compound 0.1 µM)
inactive: viability, T/C (second compound 0.1 µM, first compound 0.0316 µM) 73.1% | viability, T/C (second compound 0.1 µM, first compound 0.1 µM) 73.9% | viability, T/C (second compound 0.1 µM, first compound 0.316 µM) 53.5% | viability, T/C (second compound 0.1 µM, first compound 1 µM) 30.8% | viability, T/C (second compound 0.1 µM, first compound 3.16 µM) 20.9% | viability, T/C (second compound 0.1 µM, first compound 10 µM) 10.5% | viability, T/C (second compound 0.316 µM, first compound 0.0316 µM) 72.5% | viability, T/C (second compound 0.316 µM, first compound 0.1 µM) 69.6% | viability, T/C (second compound 0.316 µM, first compound 0.316 µM) 44.4% | viability, T/C (second compound 0.316 µM, first compound 1 µM) 28.2% | viability, T/C (second compound 0.316 µM, first compound 3.16 µM) 18.2% | viability, T/C (second compound 0.316 µM, first compound 10 µM) 10.7% | viability, T/C (second compound 1 µM, first compound 0.0316 µM) 57.7% | viability, T/C (second compound 1 µM, first compound 0.1 µM) 56.9% | viability, T/C (second compound 1 µM, first compound 0.316 µM) 41.9% | viability, T/C (second compound 1 µM, first compound 1 µM) 28.1% | viability, T/C (second compound 1 µM, first compound 3.16 µM) 18% | viability, T/C (second compound 1 µM, first compound 10 µM) 11.3% | viability, T/C (second compound 3.16 µM, first compound 0.0316 µM) 54.9% | viability, T/C (second compound 3.16 µM, first compound 0.1 µM) 55.8% | viability, T/C (second compound 3.16 µM, first compound 0.316 µM) 38.8% | viability, T/C (second compound 3.16 µM, first compound 1 µM) 23.4% | viability, T/C (second compound 3.16 µM, first compound 3.16 µM) 16.8% | viability, T/C (second compound 3.16 µM, first compound 10 µM) 11.5% | viability, T/C (second compound 10 µM, first compound 0.0316 µM) 44.6% | viability, T/C (second compound 10 µM, first compound 0.1 µM) 43.3% | viability, T/C (second compound 10 µM, first compound 0.316 µM) 30% | viability, T/C (second compound 10 µM, first compound 1 µM) 20.8% | viability, T/C (second compound 10 µM, first compound 3.16 µM) 15.5% | viability, T/C (second compound 10 µM, first compound 10 µM) 12.2%
158 nM: IC50 (second compound 1 µM)
< 31.6 nM: IC50 (second compound 10 µM)

From PubChem BioAssay AID1918934 (Molecular Pharmacology Branch, DTP, NCI, 2023)
